Experimental data published in ChEMBL document CHEMBL1777682, “NMR evaluation of interactions between substituted-indole and PDZ1 domain of PSD-95” (Bioorg Med Chem Lett, 2011).
The source made the active and inactive calls. The calls are words filed in the database; no cut-off is given here.

Biological target: Disks large homolog 4 (Homo sapiens) (UniProt P78352)
Assay: Binding affinity to recombinant 15N-labelled PSD95-PDZ1 domain expressed in Escherichia coli BL21 assessed as chemical shift perturbation by NMR spectra analysis

Disks large homolog 4 (Homo sapiens), sequence (P78352 whole entry, looked up, the tested form may be a part): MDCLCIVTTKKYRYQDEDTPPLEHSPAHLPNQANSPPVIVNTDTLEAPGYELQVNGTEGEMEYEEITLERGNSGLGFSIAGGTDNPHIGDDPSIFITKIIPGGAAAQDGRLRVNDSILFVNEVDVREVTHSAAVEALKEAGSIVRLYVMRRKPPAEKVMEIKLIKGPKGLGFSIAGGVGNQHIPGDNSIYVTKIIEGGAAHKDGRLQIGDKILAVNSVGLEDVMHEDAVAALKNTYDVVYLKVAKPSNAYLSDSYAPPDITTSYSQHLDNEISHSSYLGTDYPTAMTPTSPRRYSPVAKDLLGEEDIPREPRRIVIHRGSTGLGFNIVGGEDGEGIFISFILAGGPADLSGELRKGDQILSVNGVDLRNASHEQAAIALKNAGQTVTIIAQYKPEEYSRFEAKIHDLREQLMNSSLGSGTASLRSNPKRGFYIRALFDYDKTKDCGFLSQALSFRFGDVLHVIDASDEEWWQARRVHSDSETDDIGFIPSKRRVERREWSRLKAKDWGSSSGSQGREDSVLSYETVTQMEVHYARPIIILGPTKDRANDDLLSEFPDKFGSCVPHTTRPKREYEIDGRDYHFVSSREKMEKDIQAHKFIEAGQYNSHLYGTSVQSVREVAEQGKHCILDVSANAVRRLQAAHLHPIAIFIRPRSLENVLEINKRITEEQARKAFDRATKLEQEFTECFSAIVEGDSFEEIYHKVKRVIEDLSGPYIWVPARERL

Row | Compound | Activity
1 | Cc1c(C(=O)O)[nH]c2ccc(C(=O)O)cc12 | Active
2 | CCOC(=O)c1ccc2[nH]c(C(=O)O)c(C)c2c1 | inactive
3 | COC(=O)c1cc2c(C)c(C(=O)O)[nH]c2cc1C | inactive
4 | Cc1cc2c(C)c(C(=O)O)[nH]c2cc1C(=O)O | Active
5 | Cc1cc2[nH]c(C(=O)O)c(C)c2cc1C(=O)O | Active
6 | Cc1cc2c(C)c(C(=O)O)n(C)c2cc1C(=O)O | inactive
7 | Cc1cc2cc(C(=O)O)[nH]c2cc1C(=O)O | inactive
8 | COC(=O)c1cc2[nH]c(C(=O)O)c(C)c2cc1C | inactive
